Test system: B16F10 melanoma tumor
Experiment: Adoptive transfer of lymph node cells into NRG mice bearing MC38 and B16F10 tumors: B16F10 flank
Assay type: in vivo
Details: same recipient mice, other flank (FIG. 11B)
Description: FIG. 11 depicts the effect of 5-HTR antagonists on the antigen-specific CTL response MC38 tumor model in mice: (A) Representative experimental plan of the adoptive transfer experiment where NRG mice. In brief, NRG mice were inoculated with MC38 on one flank and B16F10 cells on the other. These mice received total lymph node cells from naïve C57BL/6J mice or MC38 tumor-bearing control or RS-127445 treated mice. (B) Tumor volume data from the above-described experiment was measured and plotted (C) Immunocytochemistry data showing expression of H2-Kb-[…]^+ (red) on MC38 cells transfected with pCL-neo-OVA plasmid on the right side and MC38 cells without transfection. DAPI is used as a counterstain. (D-E) C7BL/6J mice were inoculated with an MC38-ova cell line and treated with RS-127445 or left untreated. After 10 days of such treatment, Total lymph node cells were harvested tagged with CFSE, and cultured in the presence of ovalbumin protein (50 μg/ml) for 5 days. After 5 days cells were checked for CFSE expression by flow cytometry to check proliferation. Here is the data (D) showing the CFSE in CD8^+ cells. The statistical data of the total percentage of CFSE^− CD8 T cells corresponding with the percentage of proliferated CD8 T cells were plotted. […]

Question: How did the “B16F10 tumor growth after transfer of antagonist primed total immune cells” value turn out when `CC(C)c1cc(-c2ccc(F)c3ccccc23)nc(N)n1` [RS-127445] was run?
Answer: Its value is “failed to control B16F10 tumor growth”.
